Compound in assay [1]: N#CC1(c2ccc(NC(=O)c3cccnc3NCc3ccncc3)cc2)CCCC1 [Apatinib]
Nature of the assay: relative viability (nuclei count vs DMSO), 5 days (fraction); higher = more cells survive. In outline: (§1)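 Following overnight incubation at 37 °C, lung cancer cell lines in 1536-well plates were pinned with five library-drug doses (not always all listed) in √10 steps on vehicle-anchored plates. The cells then spent 5 days without medium change before a combined fix, permeabilisation and Hoechst stain, 4× imaging and MetaXpress nuclear counts. Viability is the treated-to-vehicle ratio of nuclei, taken as the median across plates. Only plates with control CV below 25% and at least one doubling passed.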

Compound in assay [2]: CN(C)C(=N)NC(=N)N [Metformin]
The description is as above. In outline: as §1

Take NCI-H460: the relative viability was 0.976 in assay [1] (0.08 µM); 0.99 in assay [1] (0.253 µM); 0.963 in assay [1] (0.8 µM); 0.925 in assay [1] (2.53 µM); 0.93 in assay [1] (8 µM); 1.01 in assay [2] (31.62 µM). The relative viability was 1 in assay [2] (100 µM), 0.976 in assay [2] (316.23 µM) and 1.07 in assay [2] (1000 µM).
